Measurements taken from patent US20100173912A1, “Novel Compound” (priority 2007, published 2010).

Target: T1, human mGluR5b (Homo sapiens, UniProt P41594)
T1 construct: expressed in transfected cells; host or cells: CHO cells, pSwitch vector (Invitrogen), expression induced with mifepristone
Test: FLIPR positive modulator assay in CHO cells expressing human mGluR5b
Format: cell-based
Details: FLIPR second read after EC20 glutamate, normalised to EC20 (basal) and EC100 (total) glutamate response, read-out: pEC50 in the human mGluR5b positive modulator assay (converted)
Method: CHO cells expressing human mGluR5b (pSwitch vector, Invitrogen) were maintained in DMEM media with 10% Foetal Calf Serum, 0.005% Hygromycin, Proline(10 mg/mL), Zeocin(0.005%). The media was replaced between subculturing days to remove any excess glutamate build up that may cause receptor desensitization. 24 hrs prior to conducting the assay, cells were plated in 384-well black flat clear bottom plates and mGluR5 expression was induced with the addition of 0.01 nM mifepristone. The plates were incubated at 37° C. to give a monolayer with a confluency of 80%.
The tissue culture medium was aspirated using a Tecan power washer. Cells were loaded with 30 μl of Hanks Balanced Salts (HBSS)+[…]+2 μM Fluo-4+250 μM Brilliant Black+0.01% Pluronic acid. The cells were incubated at 37° C. for 2 hours to allow uptake of the dye Fluo-4AM into the cell cytosol, which was converted to Fluo-4 by natural esterases cleaving the AM region preventing the Fluo-4 leaving the cell. […]
A 0.38 M solution of glutamic acid was prepared in water. […] A fluorescent reading was made. […] A second fluorescent read was made. […]
The compound was added ‘on line’ to the cells and a first FLIPR read was made to estimate agonism. The cell plates were then incubated at 37° C. for 5-10 min after which the chosen EC20 Glutamate was added ‘on line’ and a second FLIPR reading made to estimate modulation. […]

T1 sequence (P41594 21-1212): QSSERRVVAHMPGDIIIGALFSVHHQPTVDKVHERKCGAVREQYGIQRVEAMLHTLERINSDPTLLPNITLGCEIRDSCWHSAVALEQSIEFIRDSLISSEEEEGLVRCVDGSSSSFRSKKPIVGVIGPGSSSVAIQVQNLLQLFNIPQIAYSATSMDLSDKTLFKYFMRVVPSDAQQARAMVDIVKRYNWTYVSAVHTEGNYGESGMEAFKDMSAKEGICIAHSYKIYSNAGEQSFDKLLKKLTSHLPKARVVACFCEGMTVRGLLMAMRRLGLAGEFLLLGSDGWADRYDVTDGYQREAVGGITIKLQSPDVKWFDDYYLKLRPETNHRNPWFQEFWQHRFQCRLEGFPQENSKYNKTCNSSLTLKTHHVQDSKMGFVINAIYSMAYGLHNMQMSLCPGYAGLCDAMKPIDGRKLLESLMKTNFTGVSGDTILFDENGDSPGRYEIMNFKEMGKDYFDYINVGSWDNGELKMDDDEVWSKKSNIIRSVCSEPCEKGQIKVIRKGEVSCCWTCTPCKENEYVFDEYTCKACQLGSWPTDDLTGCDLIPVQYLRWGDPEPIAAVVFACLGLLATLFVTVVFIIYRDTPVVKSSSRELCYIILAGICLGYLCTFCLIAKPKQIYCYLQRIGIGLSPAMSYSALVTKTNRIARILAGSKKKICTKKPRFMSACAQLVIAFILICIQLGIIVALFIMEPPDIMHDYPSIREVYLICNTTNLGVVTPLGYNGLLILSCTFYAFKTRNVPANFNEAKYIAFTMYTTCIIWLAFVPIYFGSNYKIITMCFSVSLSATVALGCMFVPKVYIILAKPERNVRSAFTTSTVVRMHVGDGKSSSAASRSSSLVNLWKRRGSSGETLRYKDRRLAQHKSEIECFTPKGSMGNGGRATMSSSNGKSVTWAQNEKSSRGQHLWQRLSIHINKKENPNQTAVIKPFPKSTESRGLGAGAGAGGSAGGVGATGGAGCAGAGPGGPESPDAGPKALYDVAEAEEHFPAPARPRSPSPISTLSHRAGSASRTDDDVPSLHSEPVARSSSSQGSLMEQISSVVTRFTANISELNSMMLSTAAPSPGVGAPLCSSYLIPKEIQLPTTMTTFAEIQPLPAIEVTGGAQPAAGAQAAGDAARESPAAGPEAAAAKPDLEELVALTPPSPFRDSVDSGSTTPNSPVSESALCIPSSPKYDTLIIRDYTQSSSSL

EC50: < 1000 nM
Structure (SMILES): N#Cc1cc(F)ccc1N1CCN(C(=O)COCc2ccc(F)cc2)CC1 [5-fluoro-2-[4-({[(4-fluorophenyl)methyl]oxy}acetyl)-1-piperazinyl]benzonitrile]
